Converted amounts (≈) assume the structure as drawn. Where two headings read alike, the source gives them in different places.
Legend:
Type in all cases: cell-based
[1] = test system: Staphylococcus aureus EUP MRSA002; experiment: MIC panel of challenge pathogens (CLSI), EUP MRSA002
Protocol: The inocula for each bacterial strain were prepared by picking 5-10 distinct colonies from the culture plates and suspending them in the appropriate broth as per Clinical and Laboratory Standards Institute (CLSI) guidelines M07-A8, M24-A or M11-A7 as appropriate. The inoculum was resuspended by vigorous shaking on a vortex mixer for 15 s. The turbidity was then adjusted to McFarland standard 0.5 ([…]). The inoculum was further diluted in the appropriate media for MIC tests to give a final inoculum in each well of 2-8×10^5 CFU/ml. MICs were tested in the appropriate broth in accordance with the appropriate CLSI guidelines.
A stock solution of each compound was prepared at a concentration of 1.28 g/L in DMSO. The stock was further diluted in the appropriate media to give a top starting concentration of 128 mg/L in the assay. 100 μL of the appropriate media, as per CLSI guidelines, was dispensed into each well in columns 2-12. 200 μL of the each compound solution (at 256 mg/L) was dispensed into each well in column 1. 100 μL aliquots were pipetted from column 1 wells and dispensed into column 2 with a multichannel pipette (±2% coefficient of variation) thus diluting two-fold. 100 μL samples were then pipetted from column 2 wells and dispensed into column 3. The process was repeated through to column 10. The final 100 μL of diluted drug from column 10 was then discarded. Row 11 acted as a positive control (no compound, but organisms added), Row 12 acted as a negative control (no compound, and no organisms added).
100 μL of the appropriate inoculum suspension in the appropriate media, as per CLSI guidelines, was added to the appropriate wells. […] All plates were incubated in the dark under aerobic or anaerobic conditions at 30-37° C. for 24-48 hours, according to the appropriate CLSI guideline. Plates were read visually 24-48 hours post inoculation. Endpoints of 100% inhibition were determined (CLSI interpretation endpoints following visual examination).
MIC50, MIC80, and 100% inhibition results are reported below in μg/mL in the following Tables, indicating each compound tested against a given species and strain: […]

[2] = test system: Enterococcus faecalis ATCC51299; experiment: MIC panel of challenge pathogens (CLSI)
Procedure, shortened: (§1)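 Broth microdilution per CLSI guidelines. Final inoculum 2-8×10^5 CFU/ml, compounds serially two-fold diluted from 128 mg/L top concentration. Incubated in the dark at 30-37° C for 24-48 h, aerobic or anaerobic as appropriate. MIC read visually as 100% inhibition endpoint; MIC50 and MIC80 also reported.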

[3] = test system: Staphylococcus aureus NRS383; experiment: MIC panel of challenge pathogens (CLSI)
Procedure, shortened: as §1

[4] = EUPMRSA002, Staphylococcus aureus EUP MRSA002, read-out: 100% inhibition
[5] = EUPMRSA002, Staphylococcus aureus EUP MRSA002, read-out: MIC50 (50%)
[6] = EUPMRSA002, Staphylococcus aureus EUP MRSA002, read-out: MIC80 (80%)
[7] = Enterococcus faecalis ATCC51299, read-out: 100% inhibition
[8] = Enterococcus faecalis ATCC51299, read-out: MIC50 (50%)
[9] = Enterococcus faecalis ATCC51299, read-out: MIC80 (80%)
[10] = Staphylococcus aureus NRS383, read-out: 100% inhibition
[11] = Staphylococcus aureus NRS383, read-out: MIC50 (50%)
[12] = Staphylococcus aureus NRS383, read-out: MIC80 (80%)

| Compound | MIC [1, 4] [µg/mL] | MIC50 [1, 5] [µg/mL] | MIC80 [1, 6] [µg/mL] | MIC [2, 7] [µg/mL] | MIC50 [2, 8] [µg/mL] | MIC80 [2, 9] [µg/mL] | MIC [3, 10] [µg/mL] | MIC50 [3, 11] [µg/mL] | MIC80 [3, 12] [µg/mL] | MIC ([1]; Staphylococcus aureus, EUPMRSA002, read-out: 100% inhibition) [µg/mL] | MIC50 ([1]; Staphylococcus aureus, EUPMRSA002, read-out: MIC50 (50%)) [µg/mL] | MIC80 ([1]; Staphylococcus aureus, EUPMRSA002, read-out: MIC80 (80%)) [µg/mL] | MIC ([2]; Enterococcus faecalis, ATCC51299, read-out: 100% inhibition) [µg/mL] | MIC50 ([2]; Enterococcus faecalis, ATCC51299, read-out: MIC50 (50%)) [µg/mL] | MIC80 ([2]; Enterococcus faecalis, ATCC51299, read-out: MIC80 (80%)) [µg/mL] | MIC ([3]; Staphylococcus aureus, NRS383, read-out: 100% inhibition) [µg/mL] | MIC50 ([3]; Staphylococcus aureus, NRS383, read-out: MIC50 (50%)) [µg/mL] | MIC80 ([3]; Staphylococcus aureus, NRS383, read-out: MIC80 (80%)) [µg/mL] |
| --- | --- | --- | --- | --- | --- | --- | --- | --- | --- | --- | --- | --- | --- | --- | --- | --- | --- | --- |
| CC(C)c1cc(Cl)ccc1-c1cc(C(=O)O)sc1-c1ccc(Cl)cc1C(C)C [DNM0566, 4,5-Bis(4-chloro-2-isopropylphenyl)thiophene-2-carboxylic acid] | ≤ 0.25 | ≤ 0.25 | ≤ 0.25 | 0.5 (≈ 1.15 µM) | 0.5 (≈ 1.15 µM) | 0.5 (≈ 1.15 µM) | ≤ 0.25 | ≤ 0.25 | ≤ 0.25 | – | – | – | – | – | – | – | – | – |
| Clc1ccc(Cc2sc(-c3nnn[nH]3)cc2-c2cccc(CC3CCCC3)c2)cc1 [DNM0610, 5-(5-(4-Chlorobenzyl)-4-(3-(cyclopentylmethyl)phenyl)thiophen-2-yl)-1H-tetrazole] | 0.5 (≈ 1.15 µM) | 0.5 (≈ 1.15 µM) | 0.5 (≈ 1.15 µM) | 1 (≈ 2.3 µM) | 1 (≈ 2.3 µM) | 1 (≈ 2.3 µM) | 0.5 (≈ 1.15 µM) | 0.5 (≈ 1.15 µM) | 0.5 (≈ 1.15 µM) | – | – | – | – | – | – | – | – | – |
| CN[C@H](CC(C)C)C(=O)N[C@H]1C(=O)N[C@@H](CC(N)=O)C(=O)N[C@H]2C(=O)N[C@H]3C(=O)N[C@H](C(=O)N[C@H](C(=O)O)c4cc(O)cc(O)c4-c4cc3ccc4O)[C@H](O)c3ccc(c(Cl)c3)Oc3cc2cc(c3O[C@@H]2O[C@H](CO)[C@@H](O)[C@H](O)[C@H]2O[C@H]2C[C@](C)(N)[C@H](O)[C@H](C)O2)Oc2ccc(cc2Cl)[C@H]1O [Vancomycin, reference compound] | – | – | – | – | – | – | – | – | – | 0.5 (≈ 0.345 µM) | 0.5 (≈ 0.345 µM) | 0.5 (≈ 0.345 µM) | > 16 | > 16 | > 16 | 0.5 (≈ 0.345 µM) | 0.5 (≈ 0.345 µM) | 0.5 (≈ 0.345 µM) |
| CCCCc1cccc(-c2cc(-c3nnn[nH]3)sc2Cc2ccc(Cl)cc2)c1 [DNM0606, 5-(4-(3-Butylphenyl)-5-(4-chlorobenzyl)thiophen-2-yl)-1H-tetrazole] | ≤ 0.25 | ≤ 0.25 | ≤ 0.25 | 1 (≈ 2.45 µM) | 1 (≈ 2.45 µM) | 1 (≈ 2.45 µM) | ≤ 0.25 | ≤ 0.25 | ≤ 0.25 | – | – | – | – | – | – | – | – | – |

Source: patent US9012655B2, “Antimicrobial/adjuvant compounds and methods” (Denouamed, Inc., priority 2011, dated 2015)
